Measured values reported in patent US10954405B2, “Water-based diacetylene ink, hydrochromic polydiacetylene paper prepared using the ink, and use thereof” (INDUSTRY-UNIVERSITY COOPERATION FOUNDATION HANYANG …, priority 2015, dated 2021).

Assay: Solubility of DA-1 in water dependent upon temperature (FIG. 6C)
Assay type: physicochemical
Conditions: sample of DA-1 and water in a plastic bag on a paper printed with "A", temperature elevated; clearer at 25° C. and 30° C.
Procedure: FIGS. 6A-6C are a set of photographs illustrating the temperature-dependent reaction of the moisture test paper manufactured according to the moisture test paper manufacture example and solubility of DA-1 in water dependent upon temperature.
Referring to FIG. 6C when a sample including DA-1 and water was put into a plastic bag, the plastic bag was put on a paper on which “A” was printed, and temperature was elevated, the lower “A” began to be observed from about 20° C. and became clearer as temperature was elevated to 25° C. and 30° C.

temperature from which DA-1 dissolves in water (printed "A" under the sample began to be observed): about 20 °C
Structure (SMILES): CCCCCCCCCCCCC#CC#CCCCCCCCCC(=O)NCCCn1cc[n+](CC#N)c1 [DA-1]
